Laboratory results as given in patent publication US6372757B1, “Phenylurea and phenylthio urea derivatives” (SmithKline Beecham p.l.c., priority 1998, dated 2002).
Where a name gives a salt, the structure may show the parent alone. No end group written: not given here.

Key:
human orexin-1 receptor = biological target: T1, human orexin-1 receptor (Homo sapiens, UniProt O43613); experiment: Orexin-1 receptor antagonist activity, FLIPR intracellular calcium assay in HEK293 cells against 3.0 nM human orexin-A; format: cell-based; details: HEK293 cells expressing human orexin-1 receptor; antagonism of 3.0 nM human orexin-A; Kb=IC50/(1+([3/EC50])
T1 construct: expressed in transfected cells; host or cells: HEK293
T1 sequence (O43613 1-425): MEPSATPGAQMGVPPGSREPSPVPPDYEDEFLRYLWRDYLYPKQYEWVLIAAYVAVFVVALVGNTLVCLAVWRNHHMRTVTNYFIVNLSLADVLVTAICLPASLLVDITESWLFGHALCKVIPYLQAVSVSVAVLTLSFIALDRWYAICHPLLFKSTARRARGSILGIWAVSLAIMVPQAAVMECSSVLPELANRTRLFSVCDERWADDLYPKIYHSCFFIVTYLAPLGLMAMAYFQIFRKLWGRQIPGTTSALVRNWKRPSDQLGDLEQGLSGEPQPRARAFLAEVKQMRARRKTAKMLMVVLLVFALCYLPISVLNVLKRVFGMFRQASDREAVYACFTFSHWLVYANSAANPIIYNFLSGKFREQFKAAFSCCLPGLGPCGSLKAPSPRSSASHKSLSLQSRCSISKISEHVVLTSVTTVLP
Procedure: The seeded plates were incubated overnight at 37° C. in 5% CO2.

[1] = Rat sleep/EEG studies, central administration at onset of normal sleep period; format: in vivo; details: at the expense of paradoxical sleep and slow wave sleep 2
Source text: Therefore, antagonists of orexin receptors may be useful in the treatment of sleep disorders including insomnia.

[2] = central administration, freely-feeding rats, 4 hour time period; cited from earlier work

`CSc1ccc(NC(=O)Nc2ccnc3cccnc23)cc1` [Example 2, 1-(4-Methylthiophenyl)-3-[1,5]naphthyridin-4-yl urea hydrochloride] showed a Kb (human orexin-1 receptor) of under 100 nM.
In the case of “orexin-A: ligand for the orexin-1 receptor; 33-residue peptide, sequence given in the 1st table (QPLPDCCRQKTCSCRLYELLHGAGNHAAGILTL-NH2; not fully specified (residue 1, bridges); ends and bridges not checked; UniProt O43612 34-66, looked up)”, the effect on arousal [1] is given as “does-related increase in arousal” and the “increase in food intake over control rats receiving vehicle” value [2] is given as “approximately four-fold”.
